{"source": "patent US20140213502A1", "about": "“CHEMICAL MODIFICATION OF APOLIPOPROTEIN MIMETIC PEPTIDES FOR THE PRODUCTION OF THERAPEUTIC AGENTS” (United States Department of Health and Human Services, priority 2011, published 2014)", "key": {"pepsin": {"test_system": "pepsin", "experiment": "Susceptibility to proteolysis by pepsin, loss of intact peptide by MALDI-TOF MS", "type": "in vitro ADME", "conditions": "for remaining at 24 h, 500 μg/ml: pepsin (isolated protease), pepsin 0.5 μg/ml, pH 2, 37° C., read-out: peptide remaining after digestion", "procedure": "(§1) FIG. 2 depicts information relating to peptide susceptibility to proteolysis. Peptides […] and […] at a final concentration of 500 μg/ml were incubated for the indicated times with either pepsin (0.5 μg/ml) in 10% acetic acid (pH 2.0) buffer (Panel A) or with chymotrypsin (0.5 μg/ml) in 10 mM NH4HCO3 (pH 7.4) buffer (Panel B), and loss of intact peptide was monitored by MALDI-TOF MS. Results are expressed as normalized area under the curve measurements relative to three internal standards. […] Several potential pepsin and/or chymotrypsin cleavage sites are found within and outside the linker region of the peptides […] and […]. […] and […] (5 mg/ml) were diluted 10× with either 10% acetic acid (pH 2), containing pepsin (0.5 μg/ml final) or in 10 mM NH4HCO3 (pH 7), containing chymotrypsin (0.5 μg/ml final). After incubation at 37° C., aliquots at various time points were removed and dried on a MALDI Anchor Chip target at 45° C. MALDI standards (Bombesin, ACTH 1-17, ACTH 18-39, Somastatin 28, CHCA in 50% ACN, 0.1% TFA) and matrix were added sequentially and allowed to dry between additions. Samples were analyzed on a Bruker AutoFlex III (Bruker Daltonics) in positive ion reflectron mode. Relative protein concentrations were determined from areas under the curve, using the MALDI standards as calibrators."}, "aortic atherosclerosis": {"test_system": "aortic atherosclerosis", "experiment": "Atherosclerosis progression in a mouse model, en face analysis of aorta", "type": "in vivo", "conditions": "apoE^hypx SR-BI Ko mice, 200 ug/mL in drinking water, high fat (21%) diet 2 weeks", "procedure": "FIG. 8 depicts the results of testing the peptide […] on atherosclerosis progression in a mouse model of atherosclerosis. To test the ability of the stapled peptide variant of the last helix of apoA-T containing the long linker, […], it was added to the drinking water (200 ug/mL) of apoE^hypx SR-BI Ko mice. The mice were fed a high fat (21%) diet for 2-weeks and examined for aortic atherosclerosis by en face analysis."}, "[1]": {"experiment": "Helicity by circular dichroism (CD) spectroscopy", "type": "physicochemical", "conditions": "for helical (helicity by CD spectroscopy): 24° C., aqueous buffer (sodium phosphate pH 7.4), peptide 0.1 mg/mL; for Helicity at 90° C.: heat denaturation, CD spectroscopy", "procedure": "FIG. 1 depicts the primary sequence and information regarding the biophysical characterization of illustrative peptides discussed herein. […] X1=(R)-a-(7′-octanyl)Ala; X2=(S)-a-(4′ pentenyl)Ala. […] (dotted line) A10, (solid line) S1A10, (dashed line) S2A10.\nFIG. 5 depicts helicity of peptides as measured by CD-spectroscopy at 24° C.: (dotted line) 5A, (dashed line) acyl-5A.\nThe helical nature of the peptides was determined by circular dichroism spectroscopy. Peptides (0.1 mg/mL) in sodium phosphate buffer (pH 7.4) were loaded into a quartz cuvette (d=0.2 cm path length) and CD spectra from 185 to 240 nm were recorded on a Jasco J715 spectropolarimeter at 24° C. Data were normalized by calculating the mean residue ellipticity (θ). Peptide thermostability was monitored at 220 nm by increasing temperature from 10° to 90° C."}, "chymotrypsin": {"test_system": "chymotrypsin", "experiment": "Susceptibility to proteolysis by chymotrypsin, loss of intact peptide by MALDI-TOF MS", "type": "in vitro ADME", "conditions": "for remaining at 24 h, 500 μg/ml: chymotrypsin (isolated protease), read-out: peptide remaining after digestion", "procedure": "as §1"}, "[2]": {"conditions": "cited from earlier work"}, "ABCG1 transporter": {"biological_target": "T1, ABCG1 transporter (Homo sapiens, UniProt P45844)", "T1 construct": "expressed in transfected cells; host or cells: BHK cells", "experiment": "Cholesterol efflux, ABCG1 transfected BHK cells", "type": "cell-based", "conditions": "18 h, no phospholipid reconstitution", "procedure": "(§2) FIG. 4 depicts the results of testing the effect of the peptides on cholesterol efflux. Peptides A10, S1A10, S2A10, 5A at the indicated concentration were incubated with (Panel A) BHK control cells, (Panel B) ABC-A1 transfected BHK cells, (Panel C) ABC-G1 transfected BHK cells, and (Panel D) SR-B1 transfected BHK cells and monitored for cholesterol efflux. Percent of cholesterol efflux over 18 h is expressed as mean±SD of triplicate determinations.\n(§3) The ability of the three peptides and the bi-helical 5A peptide to promote cholesterol efflux was tested on BHK cells stably transfected with human ABCA1, ABCG1 or the human SRBI receptor (FIGS. 5 and 6). Cholesterol efflux studies were performed, as described previously. Control BHK cells and BHK cells stably transfected with either human ABCA1, ABCG1 or SR-BI were radiolabeled with [^3H] cholesterol for 24 h, washed and then treated with the indicated concentration of peptides for 18 h. Percent efflux was calculated by subtracting the radioactive counts in blank medium (alpha-minimal essential media plus 10 μg/ml bovine serum albumin) from the radioactive counts in the presence of a peptide and then dividing the result by the sum of the radioactive counts in the medium plus the cell fraction."}, "ABCA1 transporter": {"biological_target": "T2, ABCA1 transporter (Homo sapiens, UniProt O95477)", "T2 construct": "expressed in transfected cells; host or cells: BHK cells", "T2 sequence (O95477 whole entry)": "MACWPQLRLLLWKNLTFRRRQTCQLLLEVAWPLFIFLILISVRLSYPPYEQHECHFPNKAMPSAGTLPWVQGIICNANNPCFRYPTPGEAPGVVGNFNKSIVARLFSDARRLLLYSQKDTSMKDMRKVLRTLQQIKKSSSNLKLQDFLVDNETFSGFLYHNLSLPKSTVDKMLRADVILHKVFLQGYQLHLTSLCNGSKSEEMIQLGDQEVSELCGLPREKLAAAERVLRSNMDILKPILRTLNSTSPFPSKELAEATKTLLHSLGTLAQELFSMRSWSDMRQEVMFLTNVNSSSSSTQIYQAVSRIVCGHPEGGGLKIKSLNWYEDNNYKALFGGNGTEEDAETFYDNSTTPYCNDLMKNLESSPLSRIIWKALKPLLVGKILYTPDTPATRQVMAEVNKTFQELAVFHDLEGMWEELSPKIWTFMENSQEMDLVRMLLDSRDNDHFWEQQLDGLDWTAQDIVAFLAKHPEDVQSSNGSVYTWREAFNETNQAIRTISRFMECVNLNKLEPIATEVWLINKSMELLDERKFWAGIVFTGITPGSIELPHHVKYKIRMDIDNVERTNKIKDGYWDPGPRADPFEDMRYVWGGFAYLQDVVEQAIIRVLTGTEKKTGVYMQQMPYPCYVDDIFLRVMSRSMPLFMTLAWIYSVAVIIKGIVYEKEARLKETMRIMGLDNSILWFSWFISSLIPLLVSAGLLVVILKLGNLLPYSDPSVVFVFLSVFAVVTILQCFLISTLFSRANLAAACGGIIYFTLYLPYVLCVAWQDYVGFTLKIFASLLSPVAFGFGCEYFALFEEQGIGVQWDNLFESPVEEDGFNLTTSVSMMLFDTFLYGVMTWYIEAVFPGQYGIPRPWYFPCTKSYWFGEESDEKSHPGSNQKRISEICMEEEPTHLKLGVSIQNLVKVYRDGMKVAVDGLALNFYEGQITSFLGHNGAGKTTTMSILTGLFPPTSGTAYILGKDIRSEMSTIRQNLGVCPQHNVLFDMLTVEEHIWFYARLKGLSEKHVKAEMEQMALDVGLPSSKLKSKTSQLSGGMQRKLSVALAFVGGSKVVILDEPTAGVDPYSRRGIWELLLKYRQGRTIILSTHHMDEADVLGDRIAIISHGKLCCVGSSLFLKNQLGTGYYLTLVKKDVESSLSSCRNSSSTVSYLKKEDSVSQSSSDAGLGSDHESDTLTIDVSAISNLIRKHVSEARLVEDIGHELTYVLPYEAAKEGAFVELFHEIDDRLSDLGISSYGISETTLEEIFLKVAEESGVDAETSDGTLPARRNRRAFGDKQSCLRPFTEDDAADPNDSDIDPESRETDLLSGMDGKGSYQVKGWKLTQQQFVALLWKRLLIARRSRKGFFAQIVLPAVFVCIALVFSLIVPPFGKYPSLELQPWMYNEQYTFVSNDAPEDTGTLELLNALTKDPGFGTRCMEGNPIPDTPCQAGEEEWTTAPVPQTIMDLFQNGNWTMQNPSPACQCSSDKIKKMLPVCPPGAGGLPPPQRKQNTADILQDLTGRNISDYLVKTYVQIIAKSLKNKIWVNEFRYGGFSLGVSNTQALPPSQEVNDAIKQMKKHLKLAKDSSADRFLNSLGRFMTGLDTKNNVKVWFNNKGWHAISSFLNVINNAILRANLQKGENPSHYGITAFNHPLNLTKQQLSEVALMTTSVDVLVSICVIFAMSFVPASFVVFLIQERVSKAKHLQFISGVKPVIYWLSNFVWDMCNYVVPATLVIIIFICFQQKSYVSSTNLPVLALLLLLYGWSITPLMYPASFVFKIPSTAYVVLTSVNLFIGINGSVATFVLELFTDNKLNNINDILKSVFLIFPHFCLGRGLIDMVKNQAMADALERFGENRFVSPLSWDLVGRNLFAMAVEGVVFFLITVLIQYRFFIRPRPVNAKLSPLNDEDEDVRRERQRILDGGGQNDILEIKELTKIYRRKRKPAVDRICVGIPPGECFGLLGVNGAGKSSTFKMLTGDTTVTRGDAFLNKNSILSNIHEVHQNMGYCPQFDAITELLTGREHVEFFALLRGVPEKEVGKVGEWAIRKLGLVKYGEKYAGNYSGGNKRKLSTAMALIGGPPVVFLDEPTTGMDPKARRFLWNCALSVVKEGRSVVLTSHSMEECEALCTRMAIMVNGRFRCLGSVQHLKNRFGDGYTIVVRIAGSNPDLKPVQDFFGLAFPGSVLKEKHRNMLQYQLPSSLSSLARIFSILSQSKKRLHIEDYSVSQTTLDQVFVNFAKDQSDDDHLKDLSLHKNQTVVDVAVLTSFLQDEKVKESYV", "experiment": "Cholesterol efflux, BHK cells stably transfected with human ABCA1", "type": "cell-based", "conditions": "18 h", "procedure": "as §2, §3"}, "[3]": {"type": "physicochemical", "procedure": "FIG. 3 depicts Dimyristoyl phosphatidyl choline (DMPC) vesicle solubilization by the indicated peptides. Peptides A10, S1A10 and S2A10 at a final concentration of 33 μg/mL or phosphate buffer saline (PBS) was incubated with DMPC vehicles (200 μg/mL) and monitored for turbidity at 1 min. intervals.\nA phospholipid vesicle solubilization assay was undertaken to assess the ability of the peptides to act like detergents. Dimyristoyl phosphatidyl choline (DMPC) vesicles were prepared by resuspension of dried DMPC with PBS and vortexing for 5 min. Changes in light scattering upon peptide addition were monitored at 24° C. every minute for 1 h at 660 nm, with shaking in a Perkin Elmer plate reader."}, "SR-BI receptor": {"biological_target": "T3, SR-BI receptor (Homo sapiens, UniProt Q8WTV0)", "T3 construct": "expressed in transfected cells; host or cells: BHK cells", "T3 sequence (Q8WTV0 1-552)": "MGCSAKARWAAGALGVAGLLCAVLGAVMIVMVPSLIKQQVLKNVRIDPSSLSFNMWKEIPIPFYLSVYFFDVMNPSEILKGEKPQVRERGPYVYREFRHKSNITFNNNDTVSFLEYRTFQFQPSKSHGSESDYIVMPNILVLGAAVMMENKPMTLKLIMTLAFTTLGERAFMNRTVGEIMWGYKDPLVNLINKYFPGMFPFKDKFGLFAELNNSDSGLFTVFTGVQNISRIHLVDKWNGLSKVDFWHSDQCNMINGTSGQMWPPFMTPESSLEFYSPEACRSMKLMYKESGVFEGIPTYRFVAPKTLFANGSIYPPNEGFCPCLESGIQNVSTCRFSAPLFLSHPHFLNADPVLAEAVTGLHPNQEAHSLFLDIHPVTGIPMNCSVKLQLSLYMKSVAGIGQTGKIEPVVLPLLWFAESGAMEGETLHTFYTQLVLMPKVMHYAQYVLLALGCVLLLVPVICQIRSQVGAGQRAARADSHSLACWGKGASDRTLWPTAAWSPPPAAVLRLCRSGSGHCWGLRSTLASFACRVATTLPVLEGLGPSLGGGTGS", "experiment": "Cholesterol efflux, SR-BI transfected BHK cells", "type": "cell-based", "conditions": "18 h, no phospholipid reconstitution", "procedure": "as §2, §3"}, "[4]": {"experiment": "Oligomer formation in aqueous solution", "type": "physicochemical"}, "[5]": {"experiment": "Effect of acyl-5A on serum lipid profile of mice", "type": "in vivo", "conditions": "CS7BL/6 mice, 30 mg/kg intravenously in saline, relative to baseline", "procedure": "FIG. 7 depicts the results of testing acyl-5A on scrum lipid values in mice. Acyl-5A was injected intravenously in CS7BL/6 mice (n=4) at a dose of 30 mg/kg in saline, and serum was measured for total cholesterol (Panel A), cholesteryl esters (Panel B), and free cholesterol (Panel C) at the indicated, time points. Mean of results are expressed as % of baseline.\nIn FIG. 7, the results of testing the effect of acyl-5A on the serum lipid profile of mice are shown."}, "[6]": {"conditions": "chymotrypsin 0.5 μg/ml, 10 mM NH4HCO3 (pH 7), 37° C."}}, "note": "Read-outs that look alike come from different tables or passages of the source. Bridge positions count the residues as written; N and C are the ends. Square brackets hold non-standard residues; d marks the D form. Ends that are not written are not given here. Peptide text beside a SMILES is read from it. * marks the point of attachment. Myristoyl = CCCCCCCCCCCCCC(=O)*; R8 = C=CCCCCCC[C@@](C)(N)C(=O)O; S5 = C=CCCC[C@](C)(N)C(=O)O", "data": [{"compound": "CC(=O)N[C@H](C(=O)N[C@@H](CC(C)C)C(=O)N[C@@H](CCC(=O)O)C(=O)N[C@@H](CO)C(=O)N[C@@H](Cc1ccccc1)C(=O)N[C@@H](CCCCN)C(=O)N[C@H](C(=O)N[C@@H](CO)C(=O)N[C@@]1(C)CCCC=CCCCCCC[C@](C)(C(=O)N[C@H](C(=O)N[C@@H](CCCCN)C(=O)N[C@@H](CCCCN)C(=O)N[C@@H](CC(C)C)C(=O)N[C@@H](CC(N)=O)C(=O)N[C@H](C(=O)N[C@@H](CCC(N)=O)C(N)=O)[C@@H](C)O)[C@@H](C)O)NC(=O)[C@H](CCC(=O)O)NC(=O)[C@H](CCC(=O)O)NC(=O)[C@H](CC(C)C)NC(=O)[C@H](C)NC(=O)[C@H](CO)NC(=O)[C@H](CC(C)C)NC1=O)C(C)C)C(C)C", "note": "[S2A10] (Ac-VLESFKVS[S5]LSALEE[R8]TKKLNTQ-NH2; staple 9-16; N-terminus and C-terminus assumed)", "values": [{"measurement": "remaining at 24 h, 500 μg/ml", "setting": "pepsin", "value": 12.2, "unit": "%"}, {"measurement": "decrease in % area coverage by atherosclerotic plaques", "setting": "aortic atherosclerosis", "value": "> 2", "unit": "fold"}, {"measurement": "helical (helicity by CD spectroscopy)", "setting": "[1]", "value": 97, "unit": "%"}, {"measurement": "Helicity at 90° C.", "setting": "[1]", "value": 48, "unit": "%"}, {"measurement": "resistance to proteolysis by chymotrypsin (in words)", "setting": "chymotrypsin; [6]", "value": "less sensitive to chymotrypsin than S1A10"}, {"measurement": "remaining at 24 h, 500 μg/ml", "setting": "chymotrypsin; [6]", "value": 3.8, "unit": "%"}]}, {"compound": "apoA-I: the main protein in High Density Lipoprotein (HDL)", "values": [{"measurement": "helical", "setting": "[2]; associated with lipids", "value": "over 80%"}, {"measurement": "helical", "setting": "[2]; lipid-free state", "value": "about 20%"}]}, {"compound": "Ac-VLESFKVSFLSALEEYTKKLNTQ-NH2 [A10, reference compound]", "values": [{"measurement": "cholesterol efflux (in words)", "setting": "ABCG1 transporter", "value": "ineffective"}, {"measurement": "cholesterol efflux by the ABCA1 transporter (in words)", "setting": "ABCA1 transporter", "value": "ineffective"}, {"measurement": "remaining at 0.5 h, 500 μg/ml", "setting": "pepsin; isolated enzyme pepsin, pH 2", "value": "< 5", "unit": "%"}, {"measurement": "DMPC vesicle solubilization (turbidity, in words)", "setting": "[3]", "value": "some initial solubilization of the DMPC vesicles, but at later time points, the turbidity of the solution increased"}, {"measurement": "helical (helicity by CD spectroscopy)", "setting": "[1]", "value": 17, "unit": "%"}, {"measurement": "Helicity at 90° C.", "setting": "[1]", "value": 11, "unit": "%"}, {"measurement": "remaining at 0.5 h, 500 μg/ml", "setting": "chymotrypsin; isolated enzyme chymotrypsin, pH 7", "value": "< 5", "unit": "%"}, {"measurement": "cholesterol efflux (in words)", "setting": "SR-BI receptor", "value": "ineffective"}]}, {"compound": "CC(=O)N[C@H](C(=O)N[C@@H](CC(C)C)C(=O)N[C@@H](CCC(=O)O)C(=O)N[C@@H](CO)C(=O)N[C@@H](Cc1ccccc1)C(=O)N[C@@H](CCCCN)C(=O)N[C@H](C(=O)N[C@@H](CO)C(=O)N[C@]1(C)CCCCCCC=CCCCCCC[C@](C)(C(=O)N[C@@H](CCC(=O)O)C(=O)N[C@@H](CCC(=O)O)C(=O)N[C@@H](Cc2ccc(O)cc2)C(=O)N[C@H](C(=O)N[C@@H](CCCCN)C(=O)N[C@@H](CCCCN)C(=O)N[C@@H](CC(C)C)C(=O)N[C@@H](CC(N)=O)C(=O)N[C@H](C(=O)N[C@@H](CCC(N)=O)C(N)=O)[C@@H](C)O)[C@@H](C)O)NC(=O)[C@H](C)NC(=O)[C@H](CO)NC(=O)[C@H](CC(C)C)NC1=O)C(C)C)C(C)C", "note": "[S1A10] (Ac-VLESFKVS[R8]LSA[R8]EEYTKKLNTQ-NH2; staple 9-13; N-terminus and C-terminus assumed)", "values": [{"measurement": "remaining at 24 h, 500 μg/ml", "setting": "pepsin", "value": 0.4, "unit": "%"}, {"measurement": "helical (helicity by CD spectroscopy)", "setting": "[1]", "value": 62, "unit": "%"}, {"measurement": "Helicity at 90° C.", "setting": "[1]", "value": 25, "unit": "%"}, {"measurement": "remaining at 24 h, 500 μg/ml", "setting": "chymotrypsin; [6]", "value": 0.6, "unit": "%"}]}, {"compound": "myrstic acid GGGDWLKAFYDKVAEKLKEAFPDWAKAAYDKAAEKAKEAA (Myristoyl-GGGDWLKAFYDKVAEKLKEAFPDWAKAAYDKAAEKAKEAA) [acyl-5A]", "values": [{"measurement": "peptides per complex (oligomer)", "setting": "[4]", "value": "approximately 10 peptides per complex"}, {"measurement": "helical (helicity by CD spectroscopy)", "setting": "[1]", "value": 36.7, "unit": "%"}, {"measurement": "increase in serum total cholesterol", "setting": "[5]", "value": "approximately 20%"}, {"measurement": "increase in serum free cholesterol", "setting": "[5]; found primarily on HDL", "value": "> 2", "unit": "fold"}]}]}
